{"source": "paper PMC10423561", "about": "“Effects of the CYP3A inhibitors, voriconazole, itraconazole, and fluconazole on the pharmacokinetics of osimertinib in rats” (PeerJ, 2023)", "test": "Stability of OSIM in rat plasma QC samples (bench-top, autosampler, freeze-thaw, long-term)", "type": "in vitro ADME", "conditions": "for B-LQC RE, AVERAGE / B-LQC measured concentration, AVERAGE / B-LQC RE / B-LQC measured concentration: nominal 5.02 ng/ml; for B-LQC RE, AVERAGE / B-LQC measured concentration, AVERAGE / B-MQC RE, AVERAGE / B-MQC measured concentration, AVERAGE / B-HQC RE, AVERAGE / B-HQC measured concentration, AVERAGE: average of 4; for B-LQC RE / B-LQC measured concentration / B-MQC RE / B-MQC measured concentration / B-HQC RE / B-HQC measured concentration: single replicates; for B-MQC RE, AVERAGE / B-MQC measured concentration, AVERAGE / B-MQC RE / B-MQC measured concentration: nominal 200.8 ng/ml; for B-HQC RE, AVERAGE / B-HQC measured concentration, AVERAGE / B-HQC RE / B-HQC measured concentration: nominal 401.6 ng/ml; for Relative stability: n=4", "protocol": "Bench-top stability was tested by placing the pretreatment samples at room temperature ([…]) for 6 h, autosampler stability was assessed by placing the prepared sample in the injector for 24 h, freeze-thaw stability was determined to be adequate over at least three cycles (from −30 °C to 25 °C), and long-term stability was assessed to be at least one month before sample preparation (at −30 °C for 30 d). For all stability results, the average %RE of OSIM ranged from −11.04% to 7.48% across the three QC concentrations, with the %CV less than 6.42% (Table S4).", "note": "Where “and” joins values, the source holds several entries; their conditions need not be identical. Equal values may be shown once."}
{"smiles": "C=CC(=O)Nc1cc(Nc2nccc(-c3cn(C)c4ccccc34)n2)c(OC)cc1N(C)CCN(C)C", "note": "[OSIM, Osimertinib]", "values": [{"measurement": "B-LQC RE, AVERAGE", "setting": "-30℃(30 day)", "result": -11.04, "unit": "%"}, {"measurement": "B-LQC measured concentration, AVERAGE", "setting": "-30℃(30 day)", "result": 4.47, "unit": "ng/mL"}, {"measurement": "B-LQC RE", "setting": "-30℃(30 day)", "result": "-11.88% and -13.96% and -8.90% and -9.43%"}, {"measurement": "B-LQC measured concentration", "setting": "-30℃(30 day)", "result": "4.42 ng/mL and 4.32 ng/mL and 4.57 ng/mL and 4.55 ng/mL"}, {"measurement": "B-MQC RE, AVERAGE", "setting": "-30℃(30 day)", "result": -0.87, "unit": "%"}, {"measurement": "B-MQC measured concentration, AVERAGE", "setting": "-30℃(30 day)", "result": 199.05, "unit": "ng/mL"}, {"measurement": "B-MQC RE", "setting": "-30℃(30 day)", "result": "4.20% and -2.59% and -1.56% and -3.53%"}, {"measurement": "B-MQC measured concentration", "setting": "-30℃(30 day)", "result": "209.23 ng/mL and 195.60 ng/mL and 197.67 ng/mL and 193.72 ng/mL"}, {"measurement": "B-HQC RE, AVERAGE", "setting": "-30℃(30 day)", "result": -1.09, "unit": "%"}, {"measurement": "B-HQC measured concentration, AVERAGE", "setting": "-30℃(30 day)", "result": 397.22, "unit": "ng/mL"}, {"measurement": "B-HQC RE", "setting": "-30℃(30 day)", "result": "-0.61% and 0.80% and -5.35%"}, {"measurement": "B-HQC measured concentration", "setting": "-30℃(30 day)", "result": "399.15 ng/mL and 404.80 ng/mL and 380.13 ng/mL"}, {"measurement": "B-LQC RE, AVERAGE", "setting": "AUTO(24h)", "result": -6.71, "unit": "%"}, {"measurement": "B-LQC measured concentration, AVERAGE", "setting": "AUTO(24h)", "result": 4.68, "unit": "ng/mL"}, {"measurement": "B-LQC RE", "setting": "AUTO(24h)", "result": "-12.78% and -6.93% and -1.98% and -5.16%"}, {"measurement": "B-LQC measured concentration", "setting": "AUTO(24h)", "result": "4.38 ng/mL and 4.67 ng/mL and 4.92 ng/mL and 4.76 ng/mL"}, {"measurement": "B-MQC RE, AVERAGE", "setting": "AUTO(24h)", "result": -1.60, "unit": "%"}, {"measurement": "B-MQC measured concentration, AVERAGE", "setting": "AUTO(24h)", "result": 197.59, "unit": "ng/mL"}, {"measurement": "B-MQC RE", "setting": "AUTO(24h)", "result": "-1.66% and 4.91% and -1.78% and -7.87%"}, {"measurement": "B-MQC measured concentration", "setting": "AUTO(24h)", "result": "197.46 ng/mL and 210.66 ng/mL and 197.22 ng/mL and 184.99 ng/mL"}, {"measurement": "B-HQC RE, AVERAGE", "setting": "AUTO(24h)", "result": -4.24, "unit": "%"}, {"measurement": "B-HQC measured concentration, AVERAGE", "setting": "AUTO(24h)", "result": 384.55, "unit": "ng/mL"}, {"measurement": "B-HQC RE", "setting": "AUTO(24h)", "result": "-2.81% and -5.55% and -7.95% and -0.66%"}, {"measurement": "B-HQC measured concentration", "setting": "AUTO(24h)", "result": "390.30 ng/mL and 379.32 ng/mL and 369.66 ng/mL and 398.95 ng/mL"}, {"measurement": "B-LQC RE, AVERAGE", "setting": "ROOM(6h)", "result": 7.48, "unit": "%"}, {"measurement": "B-LQC measured concentration, AVERAGE", "setting": "ROOM(6h)", "result": 5.40, "unit": "ng/mL"}, {"measurement": "B-LQC RE", "setting": "ROOM(6h)", "result": "11.63% and 8.45% and 4.43% and 5.39%"}, {"measurement": "B-LQC measured concentration", "setting": "ROOM(6h)", "result": "5.60 ng/mL and 5.44 ng/mL and 5.24 ng/mL and 5.29 ng/mL"}, {"measurement": "B-MQC RE, AVERAGE", "setting": "ROOM(6h)", "result": 5.16, "unit": "%"}, {"measurement": "B-MQC measured concentration, AVERAGE", "setting": "ROOM(6h)", "result": 211.16, "unit": "ng/mL"}, {"measurement": "B-MQC RE", "setting": "ROOM(6h)", "result": "7.61% and 11.08% and 3.27% and -1.32%"}, {"measurement": "B-MQC measured concentration", "setting": "ROOM(6h)", "result": "216.07 ng/mL and 223.04 ng/mL and 207.36 ng/mL and 198.15 ng/mL"}, {"measurement": "B-HQC RE, AVERAGE", "setting": "ROOM(6h)", "result": -3.51, "unit": "%"}, {"measurement": "B-HQC measured concentration, AVERAGE", "setting": "ROOM(6h)", "result": 387.49, "unit": "ng/mL"}, {"measurement": "B-HQC RE", "setting": "ROOM(6h)", "result": "-6.10% and -7.91% and 2.69% and -2.75%"}, {"measurement": "B-HQC measured concentration", "setting": "ROOM(6h)", "result": "377.12 ng/mL and 369.84 ng/mL and 412.42 ng/mL and 390.57 ng/mL"}, {"measurement": "B-LQC RE, AVERAGE", "setting": "after RTF(-30℃30 day)", "result": 6.03, "unit": "%"}, {"measurement": "B-LQC measured concentration, AVERAGE", "setting": "after RTF(-30℃30 day)", "result": 5.32, "unit": "ng/mL"}, {"measurement": "B-LQC RE", "setting": "after RTF(-30℃30 day)", "result": "-1.95% and 2.78% and 10.68% and 12.61%"}, {"measurement": "B-LQC measured concentration", "setting": "after RTF(-30℃30 day)", "result": "4.92 ng/mL and 5.16 ng/mL and 5.56 ng/mL and 5.65 ng/mL"}, {"measurement": "B-MQC RE, AVERAGE", "setting": "after RTF(-30℃30 day)", "result": -2.85, "unit": "%"}, {"measurement": "B-MQC measured concentration, AVERAGE", "setting": "after RTF(-30℃30 day)", "result": 195.09, "unit": "ng/mL"}, {"measurement": "B-MQC RE", "setting": "after RTF(-30℃30 day)", "result": "-3.40% and 0.97% and -3.10% and -5.85%"}, {"measurement": "B-MQC measured concentration", "setting": "after RTF(-30℃30 day)", "result": "193.98 ng/mL and 202.74 ng/mL and 194.57 ng/mL and 189.05 ng/mL"}, {"measurement": "B-HQC RE, AVERAGE", "setting": "after RTF(-30℃30 day)", "result": -9.46, "unit": "%"}, {"measurement": "B-HQC measured concentration, AVERAGE", "setting": "after RTF(-30℃30 day)", "result": 363.62, "unit": "ng/mL"}, {"measurement": "B-HQC RE", "setting": "after RTF(-30℃30 day)", "result": "-9.22% and -10.28% and -11.32% and -7.01%"}, {"measurement": "B-HQC measured concentration", "setting": "after RTF(-30℃30 day)", "result": "364.57 ng/mL and 360.31 ng/mL and 356.15 ng/mL and 373.44 ng/mL"}, {"measurement": "Relative stability", "setting": "prepared sample in autosampler for 24 h, range over LQC/MQC/HQC", "result": "94.15-103.09%"}, {"measurement": "Relative stability", "setting": "rat plasma, long-term at −30 °C for 30 days, range over LQC/MQC/HQC", "result": "88.96-98.91%"}, {"measurement": "Relative stability", "setting": "rat plasma, room temperature for 6 h, range over LQC/MQC/HQC (5, 200, 400 ng/mL)", "result": "96.49-107.48%"}, {"measurement": "Relative stability", "setting": "rat plasma, three freeze-thaw cycles (−30 °C to 25 °C), range over LQC/MQC/HQC", "result": "90.54-106.03%"}]}
